Assay results as given in US20220087969A1, “METHOD FOR TREATING ASTHMA” (Olatec Therapeutics LLC, priority 2019, published 2022).

What was measured:
[1] = system: OVA-induced allergic airway inflammation; experiment: Airway resistance in methacholine provocation test, OVA model, i.p. dapansutrile; type: in vivo, C57BL/6j mice; conditions: 60 mg/kg i.p., Day 29, 100 mg/mL methacholine
Description: (§1) C57BL/6j mice were sensitized to OVA (ovalbumin) by three intraperitoneal (i.p.) injections of 10 μg OVA adsorbed to 150 mg aluminum hydroxide on days 1, 14, and 21. This sensitization results in an adoptive immune response against OVA with OVA-specific TH2 cells and the production of OVA-specific antibodies of the subclasses IgE and […]. To induce acute allergic airway inflammation, mice were exposed three times to an OVA aerosol (1% w/v in PBS) on days 26, 27, and 28. Healthy control animals (healthy group) were sham sensitized to PBS and subsequently challenged with PBS aerosol. […] The following readouts were measured according to Lunding, 2015b. • General infiltration of inflammatory cells into the broncheoalveolar lumen • Determination of the specific infiltration of eosinophils, neutrophils and lymphocytes by histologic differentiation of the bronchoalveolar lavage (BAL) cells. • Goblet cell hyperplasia by CAST system (Computer Assisted Stereological Toolbox), including making microscopic pictures of the airways. • Airway resistance in response to methacholine to determine the airway hyperresponsiveness. Specifically, inflammatory cell subpopulations (eosinophils, macrophages, neutrophils, lymphocytes) infiltrating the bronchoalveolar lumen were quantified using cyto-spinned and quick-diff-stained cells from bronchoalveolar lavage fluids (BALF). […]

[2] = system: OVA-induced allergic airway inflammation; experiment: Goblet cells covering airway mucosa (PAS sections, stereology), OVA model, i.p. dapansutrile; type: in vivo, C57BL/6j mice; conditions: treated mice, 60 mg/kg i.p.; asthmatic 22.74%; p<0.01
Description: as §1

[3] = system: OVA-induced allergic airway inflammation; experiment: Leukocyte subpopulations in BALF, OVA model, oral dapansutrile in food; type: in vivo, mice
Description: The experimental protocols of the mouse model were the same as those described in Example 1, except dapansutrile was administered orally by food. The already-sensitized mice were fed ad libidum with food pellets containing 7.5 g/kg dapansutrile starting on day 22 for one week; the first aerosol challenge was on day 26. Mice typically consume about 4 g of food per day, resulting in an approximate daily dose of 0 mg/kg/day for control groups and 1,000 mg/kg/day for the treatment groups. […] OVA-sensitized, OVA-challenged asthmatic controls (asthmatic) were fed with control food pellets without dapansutrile.

[4] = system: OVA-induced allergic airway inflammation; experiment: Inflammatory cell infiltrate in lung tissue, OVA model, oral dapansutrile in food; type: in vivo; conditions: 7.5 g/kg in food, treated vs asthmatic mice, p<0.05
Description: The experimental protocols of the mouse model were the same as those described in Example 1, except dapansutrile was administered orally by food. The already-sensitized mice were fed ad libidum with food pellets containing 7.5 g/kg dapansutrile starting on day 22 for one week; the first aerosol challenge was on day 26. Mice typically consume about 4 g of food per day, resulting in an approximate daily dose of 0 mg/kg/day for control groups and 1,000 mg/kg/day for the treatment groups. […] OVA-sensitized, OVA-challenged asthmatic controls (asthmatic) were fed with control food pellets without dapansutrile. […] The label on the y-axis reads “volume of inflammatory cell infiltrate per basal membrane area (μm^3/μm^2)”. The inflammatory cells were counted within a specific distance around the airways using a microscope with the computer assisted stereological toolbox (CAST) system. These counts were set in ratio to the basal membrane to normalize within each microscopic slide to avoid slide-dependent differences.

[5] = oral, 7.5 g/kg in food, vs asthmatic mice, p<0.05

## CS(=O)(=O)CCC#N [dapansutrile, 3-methanesulfonylpropionitrile]
[1]; vs asthmatic mice, p<0.0001
  reduction of airway resistance: about 60%
[1]; treated mice, asthmatic 5.61, healthy 2.83
  airway resistance in response to methacholine: 3.93 cm H2O·sec·ml^−1
[2]
  area of epithelial basal membrane covered by goblet cells: 17.67%
[3]; oral, 7.5 g/kg in food from day 22 for one week, vs asthmatic mice, p<0.0001
  reduction in eosinophils in BALF: ~75%
[3]; oral, 7.5 g/kg in food, vs asthmatic mice
  macrophage numbers in BALF: no significant reduction
[3]; [5]
  reduction in lymphocytes in BALF: ~75%
  reduction in neutrophils in BALF: ~75%
[3]; treated mice, oral 7.5 g/kg in food, asthmatic 1.00×10^4
  lymphocytes in BALF: 0.26×10^4 cells/ml
[3]; treated mice, oral 7.5 g/kg in food, asthmatic 1.74×10^4
  neutrophils in BALF: 0.43×10^4 cells/ml
[3]; treated mice, oral 7.5 g/kg in food, asthmatic 15.93×10^4
  eosinophils in BALF: 3.77×10^4 cells/ml
[4]
  number of inflammatory cells in lung tissue (volume of inflammatory cell infiltrate per basal membrane area): significantly lower
